Results reported in US9914932B2, “Agrobacterium-mediated transformation of lipomyces” (Battelle Memorial Institute, priority 2014, dated 2018).

Columns and labels:
[1] = test system: L. starkeyi; assay: Antibiotic growth suppression on yeast synthetic complete (SC) medium agar plates; type: cell-based, Lipomyces starkeyi; conditions: 30° C.
Description: (§1) For effective selection of transgene expression in Lipomyces strains, several antibiotics were chosen to examine their effects on Lipomyces growth on yeast synthetic complete (SC, Sunrise Science Products, San Diego, Calif.) and yeast extract-peptone-detrose (YPD) medium plates, which included phosphinothricin ammonium (basta), geneticin (G418), hygromycin B (hyg), pyrithiamine and Zeocin (Zeo). Two day old Lipomyces cells grown in YPD liquid culture were used for evaluation of the antibiotic selection on the agar plates of SC or YPD. The original cells were diluted sequentially in 1:10 ratio with dH2O for four times and 10 μl cells from original culture and each dilution were spotted onto the proper agar medium plates. The plates were incubated in 30° C. incubator for 3 days. The inhibition effects of selected antibiotics on the selected plate were documented with Nikon D300s SLR digital camera (Nikon Inc., Melville, N.Y.) or the stereomicroscope-Leica MZ16 (Leica Microsystems, Buffalo Grove, Ill.).
(§2) About 5 to 10 colonies of 4 day old Lipomyces strains (except L. lipofer NRRL Y-11555 that required additional 4 days growth and more colonies due to its slow growth) grown on YPD medium agar plates were transferred into a 50 ml YPD liquid flask culture and grown at 30° C. and 200 rpm for 50 hrs. […]

[2] = test system: L. lipofer (NRRL Y-11555); assay: Antibiotic growth suppression on SC medium agar plates; type: cell-based, Lipomyces lipofer; conditions: 100 mg/l, 30° C., FIG. 3
Description: as §1, §2

[3] = test system: L. doorenjongii (NRRL Y-27504); assay: as above; type: cell-based, Lipomyces doorenjongii; conditions: 100 mg/l, 30° C., FIG. 3
Description: as §1, §2

[4] = test system: all L. starkeyi strains and Lipomyces species; assay: Hygromycin B growth suppression on YPD agar plates; type: cell-based, Lipomyces sp.; conditions: 30° C., all strains and species except L. suomiensis NRRL Y-17356, FIG. 4
Description: as §1, §2

[5] = test system: L. suomiensis strain NRRL Y-17356; assay: Hygromycin B growth suppression on YPD agar plates; type: cell-based, Lipomyces suomiensis; conditions: 30° C., L. suomiensis NRRL Y-17356, FIG. 4
Description: as §1, §2

[6] = test system: Lipomyces strains; assay: Hygromycin B inhibition on Aspergillus minimal medium; type: cell-based, Lipomyces sp.; conditions: 10 mg/l
[7] = test system: parent Lipomyces strains (Y-); assay: Hygromycin resistance of parent Lipomyces cells, 1/10 series dilutions on YPD agar plates; type: cell-based, Lipomyces sp.; conditions: 10 or 25 mg/l hygromycin B with 250 mg/L cefotaxime, FIG. 10
Protocol: The hygromycin resistance of parent and transformed Lipomyces cells in a 1/10 series dilutions were compared on the same YPD agar plates with either 10 or 25 mg/l hygromycin B (hyg10 or hyg25, respectively) and 250 mg/L cefotaxime. […] The integration of pTef1-hph transgene expression cassette (FIG. 11A) was also confirmed by Southern blotting analysis which indicated 1 to 2 copies of the gene were inserted (FIG. 11B).

CN[C@H]1C[C@@H](N)[C@H](O)[C@@H](O[C@@H]2O[C@H](CO)[C@H](O)[C@@H]3OC4(O[C@H]23)O[C@H]([C@@H](N)CO)[C@H](O)[C@H](O)[C@H]4O)[C@@H]1O (some centres unmarked) [hygromycin B]
growth selection (growth suppression) of L. starkeyi ([1]; 100 mg/l hygromycin B, FIG. 2): effective | growth suppression of three other L. starkeyi strains (NRRL Y-27493, NRRL Y-27494, NRRL Y-27495) ([1]; 100 mg/l, FIG. 3): effectively suppress the growth | growth suppression of L. lipofer (NRRL Y-11555) [2]: effectively suppress the growth | growth suppression of L. doorenjongii (NRRL Y-27504) [3]: effectively suppress the growth | concentration sufficient to suppress the growth [4]: 2.5 mg/L | concentration needed to suppress the growth [5]: at least 10 mg/l | inhibition of Lipomyces strains [6]: effective inhibition | growth of parent strains under hygromycin selection [7]: severely suppressed
